# Reference: patent US20230201168A1, “NEW THERAPY FOR THE TREATMENT OF TUMORS” (Università degli Studi di Trento, priority 2020, published 2023)
# Assays:
# VIPI cells = test: Viability assay (Hoechst 33342/PI), VIPI cells; assay type: cell-based; conditions: Homo sapiens, 48 h, mean±SD
# Description: (§1) For the evaluation of the effect of Q/D, streptogramins A analogues (alone or in combination with Q) and TMZ on GSCs viability, cells were seeded into 96-well laminin-coated microtiter plates in 150 μL of media. The plates were incubated for 24 h prior to drug treatment. Serial drug dilutions were prepared in PBS to provide a total of seven drug concentrations plus control. 10 μL of these dilutions were added to each well, and the plates were incubated for additional 48 h. Each treatment was performed in technical quadruplicate. After the drug treatments, the cells were stained with Hoechst 33342 (1 μg/mL; Thermo Fisher Scientific, cat. H1399) and Propidium Iodide (PI, 1 μg/mL; Sigma Aldrich, cat. P4170) and incubated for 20 min shaking in the dark. The plates were then read using Operetta-High Content Imaging System (Perkin Elmer) and analyzed using the Harmony Software. The number of viable cells was calculated by subtracting PI positive cells from the total number of cells estimated by Hoechst 33342 staining and normalized on the non treated control.
# (§2) Dose-response curves were plotted and growth inhibition 50 (GI50) values calculated using the GraphPad Prism software.
# COMI cells = test: Viability assay (Hoechst 33342/PI), COMI cells; assay type: cell-based; conditions: Homo sapiens, 48 h, mean±SD
# Description: as §1, §2
compound,measurement,setting,value
"Cn1nnc2c(C(N)=O)ncn2c1=O [TMZ, temozolomide]",GI50,VIPI cells,338 ± 35.5 µM
same,GI50,COMI cells,96.5 ± 15.2 µM
